# Assay results as given in patent US5609872A, “Peptides comprising a protective epitope from blood stages of plasmodium falciparum” (priority 1990, dated 1997).
# Ends that are not written are not given here.
# System: mAb 33G2
# Assay: PEPSCAN ELISA of rod-bound peptides with mAb 33G2
# Assay type: binding, human
# Details: culture supernatant with mAb 33G2 (approx. 10 μg/ml) diluted 1:100; N-acetylated peptides on rods
# Protocol: The detailed epitope specificity on the single amino acid level for the mAb 33G2 was performed using the multiple peptide synthesis technique (PEPSCAN) developed by Geysen et al. (J. Immunol. Methods 102, 259-274, 1987). Peptides were synthesized on polyethylene rods on which polymers of polyacrylic acid had been formed by […]. Polyethylene rods and Pmoc L-amino acids performed as active esthers (Cambridge Research Biochemicals, UK) were used for synthesis according to instructions of the manufacturer. The N-terminals of all peptides were acetylated. As a basis for the mAb 33G2 epitope analysis, the sequence of amino acid residues 1-19 [SEQ ID NO.: 15] (ESVTEEIAEEDKSVIEEAV) of Ag332 (Mattei, D., Berzins, K., Wahlgren, M., Udomsangpetch, R., Perlmann, P., Griesser, H. W., Scherf, A., M uller-Hill, B., Bonnefoy, S., Guillotte, M., Langsley, G., Pereira da Silva, L. and Mercereau-Puijalon, O. (1989) Cross-reactive antigenic determinants present on different Plasmodium falciparum blood-stage antigens. Parasite Immunol. 11, 15-30) was used, containing sequences of the peptides with the highest reactivity with the mAb (Udomsangpetch, R., Carlsson, J., W ahlin, B., Holmquist, G., Ozaki, L. S., Scherf, A., Mattei, D., Mercereau-Puijalon, O., Uni, S., Aikawa, M., Berzins, K. and Perlmann, P. (1989) Reactivity of the human monoclonal antibody 33G2 with repeated sequences of three distinct Plasmodium falciparum antigens. J. Immunol. 142, 3620-3626). All possible overlapping heptapeptides, hexpeptides, pentapeptides and tetrapeptides covering the mentioned sequence were synthesized and their reactivity with mAb 33G2 was analysed by ELISA as described by Geysen et al. (J. Immunol. Methods 102, 259-274, 1987). Culture supernatant containing mAb 33G2 (approx. 10 μg/ml), was diluted 1:100. Peptide containing rods were washed in phosphate-buffered saline with 0.05% Tween 20 between all steps in ELISA. Bound antibodies were detected with a rabbit antihuman IgM-alkaline phosphatase conjugate (Sigma, St. Louis, Mo.) using p-nitrophenyl phosphate, disodium salt (Sigma) as substrate.
row,Substance,"reactivity with mAb 33G2 in ELISA (absorbance at 405 nm), in words"
1,"ESVTEEI [glu-ser-val-thr-glu-glu-ile, heptapeptide, amino acids 1-7 of Ag332]",showed reactivity
2,IADEV: pentapeptide epitope analog of residue 3-7 of Ag332,recognized
3,LVEEV: pentapeptide epitope analog of residue 3-7 of Ag332,recognized
4,"SVTEEIA [ser-val-thr-glu-glu-ile-ala, heptapeptide, amino acids 2-8 of Ag332]",showed reactivity
5,"TEEIAEE [thr-glu-glu-ile-ala-glu-glu, heptapeptide, amino acids 4-10 of Ag332]",showed reactivity
6,"VTEEIAE [val-thr-glu-glu-ile-ala-glu, heptapeptide, amino acids 3-9 of Ag332]",showed reactivity
7,VVEEV: pentapeptide epitope analog of residue 3-7 of Ag332; printed as SEQ ID NO.:19 (LVEEV),recognized
8,YLDEV: pentapeptide epitope analog of residue 3-7 of Ag332,did not react
9,ile-ala-asp-glu-ile (IADEI),recognized
10,ile-thr-glu-glu-ile (ITEEI),recognized
11,"ser-val-thr-glu-glu-ile (SVTEEI) [hexapeptide, amino acids 2-7 of Ag332]",recognized
12,"thr-glu-glu-ile-ala-glu (TEEIAE) [hexapeptide, amino acids 4-9 of Ag332]",recognized
13,val-ala-glu-glu-ile (VAEEI),recognized
14,"val-thr-glu-glu-ile-ala (VTEEIA) [hexapeptide, amino acids 3-8 of Ag332]",recognized

# System: binding of mAb 33G2 to Pf11/RESA
# Assay: not given
# Details: peptide mixed with a fixed concentration of the mAb; up to 200 μg/ml tested; cited from earlier work
row,Substance,peptide concentration giving complete inhibition of mAb 33G2 immunofluorescence [µg/mL]
1,(EEVVEEVVP)2: synthetic peptide corresponding to repeated sequence in antigen Pf11.1 (also: dimer of the repeat (EEVVEEVVP)2),100
2,Y (SVTEEIAEEDK)2: peptide corresponding to a dimer of amino acids 2-12 in antigen Ag332 (YSVTEEIAEEDK; also: dimer of the peptide),0.2
